pIC50, pKi: −log10 of the molar value.
Tests used:
Stromelysin-1 = Stromelysin-1 (Homo sapiens, UniProt P08254); assay: Inhibition of human MMP-3
[1] = Half life in rat; assay type: ADME, organism-based; details: in vivo
[2] = Clearance in rat; assay type: ADME, organism-based; details: in vivo
[3] = Cmax in rat; assay type: ADME, organism-based; details: in vivo
Matrilysin = biological target: T1, Matrilysin (Homo sapiens, UniProt P09237); assay: Inhibition of human MMP-7
T1 sequence (P09237 whole entry): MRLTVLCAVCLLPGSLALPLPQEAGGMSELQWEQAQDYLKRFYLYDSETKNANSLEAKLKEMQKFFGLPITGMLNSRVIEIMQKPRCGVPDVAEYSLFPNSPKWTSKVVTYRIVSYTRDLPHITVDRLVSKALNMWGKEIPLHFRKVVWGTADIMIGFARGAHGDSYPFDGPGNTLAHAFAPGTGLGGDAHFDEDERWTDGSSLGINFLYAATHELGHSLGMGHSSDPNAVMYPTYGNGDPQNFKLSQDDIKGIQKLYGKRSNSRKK

[4] = Bioavailability in rat; assay type: ADME, organism-based; details: in vivo
Neutrophil collagenase = Neutrophil collagenase (Homo sapiens, UniProt P22894); assay: Inhibition of human MMP-8
Collagenase 3 = Collagenase 3 (Homo sapiens, UniProt P45452); assay: Inhibition of human MMP-13
[5] = biological target: 72 kDa type IV collagenase (Homo sapiens, UniProt P08253); assay: Inhibition of human MMP-2
[6] = biological target: Matrix metalloproteinase-14 (Homo sapiens, UniProt P50281); assay: Inhibition of human MMP-14
Interstitial collagenase = biological target: T2, Interstitial collagenase (Homo sapiens, UniProt P03956); assay: Inhibition of human MMP-1
T2 sequence (P03956 whole entry): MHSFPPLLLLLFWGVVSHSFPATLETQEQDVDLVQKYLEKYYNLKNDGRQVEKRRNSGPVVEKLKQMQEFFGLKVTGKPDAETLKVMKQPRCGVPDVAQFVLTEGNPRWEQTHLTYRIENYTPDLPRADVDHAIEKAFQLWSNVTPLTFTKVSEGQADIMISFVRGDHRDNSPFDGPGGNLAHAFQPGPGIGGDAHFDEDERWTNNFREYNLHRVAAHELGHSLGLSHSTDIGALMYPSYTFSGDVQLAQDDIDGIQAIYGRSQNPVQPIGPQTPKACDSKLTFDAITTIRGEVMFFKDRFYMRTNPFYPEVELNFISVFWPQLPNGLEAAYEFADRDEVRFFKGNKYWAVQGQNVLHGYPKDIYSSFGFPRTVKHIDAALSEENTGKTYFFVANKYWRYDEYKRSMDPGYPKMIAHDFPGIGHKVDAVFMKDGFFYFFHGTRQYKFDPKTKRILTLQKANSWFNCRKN

[7] = biological target: Matrix metalloproteinase-9 (Homo sapiens, UniProt P14780); assay: Inhibition of human MMP-9
Matrix metalloproteinase-9, sequence (P14780 whole entry): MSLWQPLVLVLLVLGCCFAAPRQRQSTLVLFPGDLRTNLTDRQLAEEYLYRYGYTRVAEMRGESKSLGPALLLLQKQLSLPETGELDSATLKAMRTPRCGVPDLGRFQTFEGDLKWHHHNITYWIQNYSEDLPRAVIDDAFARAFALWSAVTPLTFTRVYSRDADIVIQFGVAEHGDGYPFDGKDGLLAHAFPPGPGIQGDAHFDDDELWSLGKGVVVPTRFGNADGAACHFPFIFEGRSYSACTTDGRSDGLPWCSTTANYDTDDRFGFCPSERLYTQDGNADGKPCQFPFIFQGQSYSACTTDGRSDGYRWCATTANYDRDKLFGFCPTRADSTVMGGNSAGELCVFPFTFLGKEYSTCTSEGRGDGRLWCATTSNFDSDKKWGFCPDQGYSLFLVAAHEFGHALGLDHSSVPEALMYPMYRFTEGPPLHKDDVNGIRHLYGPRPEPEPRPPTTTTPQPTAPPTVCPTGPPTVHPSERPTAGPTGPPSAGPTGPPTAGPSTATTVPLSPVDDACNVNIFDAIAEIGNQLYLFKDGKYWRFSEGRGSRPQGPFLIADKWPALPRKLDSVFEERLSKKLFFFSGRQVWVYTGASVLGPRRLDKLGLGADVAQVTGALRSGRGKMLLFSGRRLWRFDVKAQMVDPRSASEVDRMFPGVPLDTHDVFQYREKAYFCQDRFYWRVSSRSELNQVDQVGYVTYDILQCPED

Neutrophil collagenase, sequence (P22894 whole entry): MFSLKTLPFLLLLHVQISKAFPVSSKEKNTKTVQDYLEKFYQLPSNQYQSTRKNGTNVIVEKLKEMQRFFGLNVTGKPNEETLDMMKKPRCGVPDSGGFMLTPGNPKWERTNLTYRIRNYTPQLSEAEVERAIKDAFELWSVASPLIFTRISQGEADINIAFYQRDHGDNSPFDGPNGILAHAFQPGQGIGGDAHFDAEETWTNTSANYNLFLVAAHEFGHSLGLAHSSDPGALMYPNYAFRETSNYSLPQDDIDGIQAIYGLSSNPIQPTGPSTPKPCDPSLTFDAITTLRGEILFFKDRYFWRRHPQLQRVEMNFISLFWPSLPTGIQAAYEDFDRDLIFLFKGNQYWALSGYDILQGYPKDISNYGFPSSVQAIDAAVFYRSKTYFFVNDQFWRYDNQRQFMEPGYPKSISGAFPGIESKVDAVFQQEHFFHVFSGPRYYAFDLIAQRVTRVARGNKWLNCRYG
Stromelysin-1, sequence (P08254 whole entry): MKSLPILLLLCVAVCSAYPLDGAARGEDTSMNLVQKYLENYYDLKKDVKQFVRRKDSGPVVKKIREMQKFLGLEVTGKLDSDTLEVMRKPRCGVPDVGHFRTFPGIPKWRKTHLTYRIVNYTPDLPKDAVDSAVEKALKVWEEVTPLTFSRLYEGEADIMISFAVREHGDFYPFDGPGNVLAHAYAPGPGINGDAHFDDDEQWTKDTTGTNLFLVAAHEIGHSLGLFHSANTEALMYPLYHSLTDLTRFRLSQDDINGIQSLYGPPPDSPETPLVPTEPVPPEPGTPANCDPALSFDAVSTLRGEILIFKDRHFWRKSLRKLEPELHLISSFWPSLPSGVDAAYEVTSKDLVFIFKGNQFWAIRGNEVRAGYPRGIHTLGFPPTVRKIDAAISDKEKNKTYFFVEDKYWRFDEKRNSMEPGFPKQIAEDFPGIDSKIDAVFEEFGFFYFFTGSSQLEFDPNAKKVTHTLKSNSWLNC
72 kDa type IV collagenase, sequence (P08253 whole entry): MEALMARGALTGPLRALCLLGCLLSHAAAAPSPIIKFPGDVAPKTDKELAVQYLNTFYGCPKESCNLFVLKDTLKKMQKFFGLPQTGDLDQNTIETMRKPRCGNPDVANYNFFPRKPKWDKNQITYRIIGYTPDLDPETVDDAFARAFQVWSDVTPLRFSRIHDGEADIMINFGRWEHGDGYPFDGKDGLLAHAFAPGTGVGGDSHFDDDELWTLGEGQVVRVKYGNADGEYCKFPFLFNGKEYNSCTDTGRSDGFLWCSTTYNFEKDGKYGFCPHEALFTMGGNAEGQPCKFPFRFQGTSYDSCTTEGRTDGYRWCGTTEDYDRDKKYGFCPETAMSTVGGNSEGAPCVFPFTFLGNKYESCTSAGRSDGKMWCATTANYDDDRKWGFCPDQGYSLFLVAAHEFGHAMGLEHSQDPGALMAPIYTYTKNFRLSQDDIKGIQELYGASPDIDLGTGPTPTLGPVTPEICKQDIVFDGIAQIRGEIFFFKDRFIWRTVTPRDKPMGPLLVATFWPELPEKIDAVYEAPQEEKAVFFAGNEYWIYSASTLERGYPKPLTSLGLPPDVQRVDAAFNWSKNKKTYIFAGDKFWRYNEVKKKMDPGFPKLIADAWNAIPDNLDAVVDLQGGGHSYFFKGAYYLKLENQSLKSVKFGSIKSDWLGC

pKi (Stromelysin-1)	half-life [1] [h]	clearance [2] [mL/min/kg]	Cmax [3] [ng/mL]	pKi (Matrilysin)	bioavailability [4] [%]	pKi (Neutrophil collagenase)	pIC50 (Collagenase 3)	pIC50 (Stromelysin-1)	pIC50 [5]	pKi [6]	pKi (Interstitial collagenase)	pIC50 (Matrilysin)	pIC50 [7]	pIC50 (Neutrophil collagenase)	pKi (Collagenase 3)	pKi [5]	pKi [7]	Structure (SMILES)
7.51	1.4	14	240	< 5.00	22	6.74												O=C(NO)C1(S(=O)(=O)c2ccc(OCCCc3nc(-c4ccc(OC(F)(F)F)cc4)no3)cc2)CCOCC1
	1.2		4200		14		9.15	7.05	5.89	< 5.00	< 5.00	< 5.00	5.92	5.92				COc1ccc(C(=O)N2CCN(c3ccc(S(=O)(=O)C4(C(=O)NO)CCOCC4)cc3)CC2)cc1
7.36	2	46	3500	5.52	1.7	6.62				< 5.00	< 5.00				9.18	6.96	6.43	Cc1ccc(-c2nnn(CCCOc3ccc(S(=O)(=O)C4(C(=O)NO)CCOCC4)cc3)n2)nc1
6.89				< 5.00		6.85				< 5.00	< 5.00				8.43	5.04	< 5.00	O=C(NO)C1(S(=O)(=O)c2ccc(OCCCn3cncc3-c3ccc(OC(F)(F)F)cc3)cc2)CCOCC1
7.55	2.4	12	61	< 5.00	32	6.77				< 5.00	< 5.00				9.18	6.39	5.92	O=C(NO)C1(S(=O)(=O)c2ccc(OCCCn3nnc(-c4ccc(OC(F)(F)F)cc4)n3)cc2)CCOCC1
7.43	2.4	19	2200	< 5.00	28	6.59									8.70	6.39	6.43	CCN1CCC(C(=O)NO)(S(=O)(=O)c2ccc(OCCCc3nc(-c4ccc(OC(F)(F)F)cc4)no3)cc2)CC1
								7.41		< 5.00	5.25		5.96	6.72				COc1ccc(-c2nnn(CCCOc3ccc(S(=O)(=O)C4(C(=O)NO)CCOCC4)cc3)n2)cc1
8.52	4.8	63	3000	6.01	5	6.60				< 5.00	< 5.00				9.22	6.40	5.62	Cc1ccc(-c2nnnn2CCCOc2ccc(S(=O)(=O)C3(C(=O)NO)CCOCC3)cc2)nc1
8.06	1.3		1400	5.07	26	5.10				< 5.00	< 5.00				9.89			COCCN1CCC(C(=O)NO)(S(=O)(=O)c2ccc(OCCCn3nnc(-c4ccc(OC(F)(F)F)cc4)n3)cc2)CC1
8.00	4	42	3500	5.15	7.3	7.14				< 5.00	< 5.00				8.92	6.37	5.77	O=C(NO)C1(S(=O)(=O)c2ccc(OCCCc3nnnn3-c3ccc(OC(F)(F)F)cc3)cc2)CCOCC1
7.23				5.22		7.13				< 5.00	< 5.00				8.77	6.28	5.74	O=C(NO)C1(S(=O)(=O)c2ccc(OCCCn3cnc(-c4ccc(OC(F)(F)F)cc4)c3)cc2)CCOCC1
6.05	0.59		0.02			6.05				< 5.00	< 5.00				8.80	6.26	< 5.00	COc1ccc(C(=O)NCCCOc2ccc(S(=O)(=O)C3(C(=O)NO)CCOCC3)cc2)cc1
	2.9		21900	5.15	68		> 10.00		> 10.00		< 5.00							COCCN1CCC(C(=O)NO)(S(=O)(=O)c2ccc(Oc3ccc(OC(F)(F)F)cc3)cc2)CC1

— ChEMBL document CHEMBL1770140, “MMP-13 selective α-sulfone hydroxamates: a survey of P1' heterocyclic amide isosteres” (Bioorg Med Chem Lett, 2011)
